Measurements as given in patent US6900231B2, “Aminopyridyl-substituted phenyl acetamides as protease inhibitors” (3-Dimensional Pharmaceuticals, Inc., priority 2000, dated 2005).
Counter-ions that a name gives are not always drawn.

Target: T1, human α-thrombin (Homo sapiens, UniProt P00734)
T1 construct: Human α-thrombin, human factor Xa and human plasmin were obtained from Enzyme Research Laboratories; purchased Enzyme Research Laboratories (South Bend, Ind.)
Test: In vitro inhibition of purified enzymes: Ki determination, hydrolysis of peptide p-nitroanilide substrate by thrombin
Format: biochemical
From the text: Reagents: All buffer salts were obtained from Sigma Chemical Company (St. Louis, Mo.), and were of the highest purity available.
Human α-thrombin, human factor Xa and human plasmin were obtained from Enzyme Research Laboratories (South Bend, Ind.). Bovine α-chymotrypsin (Sigma C4129), bovine trypsin (Sigma T8642) and human kidney cell urokinase (Sigma U5004) were obtained from Sigma. Human leukocyte elastase was obtained from Elastin Products (Pacific, Mo.).
Ki Determinations: All assays are based on the ability of the test compound to inhibit the enzyme catalyzed hydrolysis of a peptide p-nitroanilide substrate. […] The final concentrations for each of the substrates is listed below. In general, substrate concentrations are lower than the experimentally determined value for Km. Test compounds are prepared as a 1.0 mg/ml solution in DMSO. […]
Data corresponding to less than 10% of the total substrate hydrolysis were used in the calculations. The ratio of the velocity (rate of change in absorbance as a function of time) for a sample containing no test compound is divided by the velocity of a sample containing test compound, and is plotted as a function of test compound concentration. The data are fit to a linear regression, and the value of the slope of the line calculated. The inverse of the slope is the experimentally determined Ki value. […]

- Ki: 2.8 nM
SMILES: Cc1nc(N)ccc1CNC(=O)Cc1c(Cl)ccc(NCC(F)(F)c2ccc(F)c3ccccc23)c1F [Example 5, N-[(6-Amino-2-methyl(3-pyridyl))methyl]-2-(3-{[2,2-difluoro-2-(4-fluoronaphthyl)ethyl]amino}-6-chloro-2-fluorophenyl)acetamide Hydrochloride Salt]
